In patent US20250304549A1, “HYDROXYAMIDE DERIVATIVE AND USE THEREOF” (SICHUAN HUIYU PHARMACEUTICAL CO., LTD., priority 2022, published 2025):
Counter-ions that a name gives are not always drawn.

What was measured:
pan-HDAC = experiment: In vitro enzyme inhibition assay - HDAC (HDAC-Glo I/II), pan-HDAC; assay type: biochemical
In short: (§1)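 The compound, serially diluted 5-fold in DMSO across 8 concentrations starting from a 1 mM stock, was made up as 4× working solutions in HDAC buffer. It was then tested in the HDAC-Glo I/II system, and luminescence was recorded. IC50 values came from variable-slope four-parameter curves of inhibition rate.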

LSD1 = LSD1 (Homo sapiens (Human), UniProt O60341); experiment: In vitro enzyme inhibition assay - LSD1 (HTRF); assay type: biochemical
NCI-H526 cells = experiment: In vitro cell inhibition assay - NCI-H526 cell proliferation (CellTiter-Glo); assay type: cell-based; conditions: Homo sapiens, NCI-H526, 120 h, H526 small cell lung cancer cell proliferation, 5 days
In short: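 NCI-H526 cells plated at 1×10^3 per well overnight, then treated with 8 concentrations (5-fold dilutions) in RPMI-640 with 10% FBS for 5 days at 37° C., 5% CO2. Viable cells quantified by CellTiter-Glo luminescence; IC50 fitted from inhibition rates relative to no-inhibitor and no-cell controls.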

HDAC1 = HDAC1 (Homo sapiens (Human), UniProt Q13547); experiment: In vitro enzyme inhibition assay - HDAC (HDAC-Glo I/II), HDAC1; assay type: biochemical; conditions: read-out: HDAC IC50 (nM) HDAC 1
Sequence of HDAC1 (Q13547 whole entry): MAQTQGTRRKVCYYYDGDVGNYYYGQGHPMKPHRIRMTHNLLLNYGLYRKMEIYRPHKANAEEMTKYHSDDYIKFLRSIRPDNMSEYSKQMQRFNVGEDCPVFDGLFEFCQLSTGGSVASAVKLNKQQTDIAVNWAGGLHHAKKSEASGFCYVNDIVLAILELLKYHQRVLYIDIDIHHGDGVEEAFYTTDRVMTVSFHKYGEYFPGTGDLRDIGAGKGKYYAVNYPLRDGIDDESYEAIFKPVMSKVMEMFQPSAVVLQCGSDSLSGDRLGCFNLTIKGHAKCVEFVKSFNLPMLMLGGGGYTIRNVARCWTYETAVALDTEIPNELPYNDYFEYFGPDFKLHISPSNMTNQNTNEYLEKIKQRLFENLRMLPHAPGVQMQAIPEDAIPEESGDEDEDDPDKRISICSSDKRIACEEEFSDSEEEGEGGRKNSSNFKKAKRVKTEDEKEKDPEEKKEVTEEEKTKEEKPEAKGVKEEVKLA
Method: 2. In Vitro Enzyme Inhibition Assay—HDAC
The effect of the compound on the enzymatic activity of pan-HDAC and two isoforms (HDAC1 and HDAC8) was examined using the HDAC-Glo I/II Assay and Screening System assay to assess the level of inhibition of HDAC protease activity and selectivity in each isoform. The proteins and detection reagents were from the HDAC-Glo™ I/II Assay and Screening System (Promega). A 1 mM stock solution of the compound was prepared in DMSO and diluted in a 5-fold gradient to create a series of 8 concentrations, and a specific volume of the highest concentration was diluted 25 times with HDAC Buffer to obtain 4× working solution of the compound. […] The 384-well plate was then read on a multifunctional microplate reader, with the Luminescence channel selected to record Luminescence values (RLU). The inhibition rate was calculated using the following formula: […]
Note: ‘Negative’ refers to the group without the inhibitor; ‘Blank’ refers to the group without the enzyme.
The IC50 value was calculated by fitting the inhibition rate by GraphPad Prism software, employing log (inhibitor) vs. response-Variable Slope (four parameters) model.

HDAC8 = HDAC8 (Homo sapiens (Human), UniProt Q9BY41); experiment: In vitro enzyme inhibition assay - HDAC (HDAC-Glo I/II), HDAC8; assay type: biochemical; conditions: read-out: HDAC IC50 (nM) HDAC 8
Sequence of HDAC8 (Q9BY41 whole entry): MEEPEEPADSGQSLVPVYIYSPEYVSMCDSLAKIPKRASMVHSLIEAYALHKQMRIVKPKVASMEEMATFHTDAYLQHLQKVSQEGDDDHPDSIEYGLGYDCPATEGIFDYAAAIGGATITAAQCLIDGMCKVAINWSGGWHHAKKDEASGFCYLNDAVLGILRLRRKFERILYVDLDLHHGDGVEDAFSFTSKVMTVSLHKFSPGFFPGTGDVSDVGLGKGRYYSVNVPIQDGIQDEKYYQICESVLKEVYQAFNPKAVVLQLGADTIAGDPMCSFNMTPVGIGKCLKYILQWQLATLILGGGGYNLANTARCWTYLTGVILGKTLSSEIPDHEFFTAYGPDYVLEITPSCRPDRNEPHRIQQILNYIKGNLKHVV
In short: as §1

NCI-H1417 cells = experiment: In vitro cell inhibition assay - H1417 cell proliferation (CellTiter-Glo); assay type: cell-based; conditions: Homo sapiens, NCI-H1417, H1417 small cell lung cancer cell proliferation
In short: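 Cells exposed to 8 compound concentrations (5-fold dilutions) in BEGM with 10% FBS for 7 days at 37° C., 5% CO2. Viable cells measured by CellTiter-Glo luminescence; inhibition versus no-inhibitor and no-cell controls, IC50 fitted.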

NCI-H69 cells = experiment: In vitro cell inhibition assay - NCI-H69 cell proliferation (CellTiter-Glo); assay type: cell-based; conditions: Homo sapiens, NCI-H69, H69 small cell lung cancer cell proliferation
In short: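 Cells seeded at 1×10^3 per well and incubated overnight at 37° C., 5% CO2, then treated with 8-point 5-fold compound dilutions in RPMI-640 with 20% FBS for 7 days. Viable cells measured by CellTiter-Glo luminescence; IC50 fitted from inhibition relative to no-inhibitor and no-cell controls.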

Structure (SMILES)	IC50 (pan-HDAC) [nM]	IC50 (LSD1) [nM]	IC50 (NCI-H526 cells) [nM]	IC50 (HDAC1) [nM]	IC50 (HDAC8) [nM]	IC50 (NCI-H1417 cells) [nM]	IC50 (NCI-H69 cells) [nM]
COc1ccc(-c2cnc(N3CCC(NCc4ccc(/C=C/C(=O)NO)cc4)CC3)c(CC#N)c2-c2ccc(C#N)c(F)c2)cc1O [Example 233, (E)-3-(4-(((1-(4-(4-cyano-3-fluorophenyl)-3-(cyanomethyl)-5-(3-hydroxy-4-methoxyphenyl)pyridin-2-yl)piperidin-4-yl)amino)methyl)phenyl)-N-hydroxyacrylamide formate]	2.23	1.76	8.35	0.43	42.1	10.2	3.81
COc1ccc(-c2cnc(N3CCC(NCc4ccc(CCC(=O)NO)c(F)c4)CC3)c(C#N)c2-c2ccc(C#N)c(F)c2)cc1O [Example 201, 3-(4-((1-(3-Cyano-4-(4-cyano-3-fluorophenyl)-5-(3-hydroxy-4-methoxyphenyl)pyridin-2-yl)piperidin-4-yl)amino)methyl)-2-fluorophenyl)-N-hydroxypropanamide formate]	7.71	0.22	20.5	4.81	438	3.33	56.4
CC(C)(O)COc1ccc(-c2cnc(N3CCC(NCc4ccc(/C=C(\F)C(=O)NO)cc4)CC3)c(C#N)c2-c2ccc(C#N)c(F)c2)cc1O [Example 198, (Z)-3-(4-(((1-(3-Cyano-4-(4-cyano-3-fluorophenyl)-5-(3-hydroxy-4-(2-hydroxy-2-methylpropoxy)phenyl)pyridin-2-yl)piperidin-4-yl)amino)methyl)phenyl)-2-fluoro-N-hydroxyacrylamide formate]	6.35	0.4	21.2	4.85	67.2	0.63	23.7
COc1ccc(-c2cnc(N3CCC(NCc4ccc(/C=C/C(=O)NO)c(F)c4)CC3)c(C#N)c2-c2ccc(C#N)c(F)c2)cc1O [Example 200, (E)-3-(4-(((1-(3-Cyano-4-(4-cyano-3-fluorophenyl)-5-(3-hydroxy-4-methoxyphenyl)pyridin-2-yl)piperidin-4-yl)amino)methyl)-2-fluorophenyl)-N-hydroxyacrylamide formate]	4.18	0.45	4.1	2.95	127	2.27	5.16
COc1ccc(-c2cnc(N3CCC(NCc4ccc(CCC(=O)NO)nc4)CC3)c(C#N)c2-c2ccc(C#N)c(F)c2)cc1O [Example 191, 3-(5-(((1-(3-Cyano-4-(4-cyano-3-fluorophenyl)-5-(3-hydroxy-4-methoxyphenyl)pyridin-2-yl)piperidin-4-yl)amino)methyl)pyridin-2-yl)-N-hydroxypropanamide formate]	2.17	2.24	25.9	0.54	37.5	3.38	24.6
CC(C)(O)COc1ccc(-c2cnc(N3CCC(NCc4ccc(/C=C/C(=O)NO)nc4)CC3)c(C#N)c2-c2ccc(C#N)c(F)c2)cc1O [Example 199, (E)-3-(5-((1-(3-Cyano-4-(4-cyano-3-fluorophenyl)-5-(3-hydroxy-4-(2-hydroxy-2-methylpropoxy)phenyl)pyridin-2-yl)piperidin-4-yl)amino)methyl) pyridin-2-yl)-N-hydroxyacrylamide formate]	2.77	0.54	4.05	1.92	33.9	2.78	9.24
CC(C)(O)COc1ccc(-c2cnc(N3CCC(NCc4cnc(/C=C/C(=O)NO)nc4)CC3)c(C#N)c2-c2ccc(C#N)c(F)c2)cc1O [Example 187, (E)-3-(5-(((1-(3-Cyano-4-(4-cyano-3-fluorophenyl)-5-(3-hydroxy-4-(2-hydroxy-2-methylpropoxy)phenyl)pyridin-2-yl)piperidin-4-yl)amino)methyl)pyrimidin-2-yl)-N-hydroxyacrylamide formate]	3.71	4.11	20.9	1.98	15.5	4.89	14.8
N#Cc1ccc(-c2c(-c3ccc(Cl)c(O)c3)cnc(N3CCC(NCc4ccc(/C=C/C(=O)NO)cc4F)CC3)c2C#N)cn1 [Example 241, (E)-3-(4-(((1-(5′-(4-Chloro-3-hydroxyphenyl)-3′,6-dicyano-[3,4′-bipyridin]-2′-yl)piperidin-4-yl)amino)methyl)-3-fluorophenyl)-N-hydroxyacrylamide formate]	7.81	2.95	11.2	1.86		5.78	5.7
COc1cc(F)c(-c2cnc(N3CCC(NCc4ccc(/C=C/C(=O)NO)cn4)CC3)c(C#N)c2-c2ccc(C#N)nc2)cc1O [Example 240, (E)-3-(6-(((1-(3′,6-Dicyano-5′-(2-fluoro-5-hydroxy-4-methoxyphenyl)-[3,4′-bipyridin]-2′-yl)piperidin-4-yl)amino)methyl)pyridin-3-yl)-N-hydroxyacrylamide formate]	4.73	0.82	60.9	1.85		9.62	24.8
COc1ccc(-c2cnc(N3CCC(NCc4ccc(/C=C/C(=O)NO)cc4)CC3)c(C#N)c2-c2ccc([N+](=O)[O-])nc2)cc1O [Example 248, (E)-3-(4-(((1-(3′-Cyano-5′-(3-hydroxy-4-methoxyphenyl)-6-nitro-[3,4′-bipyridin]-2′-yl)piperidin-4-yl)amino)methyl)phenyl)-N-hydroxyacrylamide formate]	0.62	0.81	9.06	0.61		5.33	3.94
COc1ccc(-c2cnc(N3CCC(NCc4cnc(/C=C/C(=O)NO)cc4Cl)CC3)c(C#N)c2-c2ccc(C#N)c(F)c2)cc1O [Example 227, (E)-3-(4-Chloro-5-(((1-(3-cyano-4-(4-cyano-3-fluorophenyl)-5-(3-hydroxy-4-methoxyphenyl)pyridin-2-yl)piperidin-4-yl)amino)methyl)pyridin-2-yl)-N-hydroxyacrylamide formate]	11.3	0.64	109	9.71		7.36	24.1
N#Cc1ccc(-c2c(-c3ccc(Cl)c(O)c3)cnc(N3CCC(NCc4ccc(/C=C/C(=O)NO)cn4)CC3)c2C#N)cn1 [Example 238, (E)-3-(6-((1-(5′-(4-Chloro-3-hydroxyphenyl)-3′,6-dicyano-[3,4′-bipyridin]-2′-yl)piperidin-4-yl)amino)methyl) pyridin-3-yl)-N-hydroxyacrylamide formate]	4.05	3.48	56.1	1.62		25.7	28.7
CC(C)(O)COc1ccc(-c2cnc(N3CCC(NCc4ccc(/C=C/C(=O)NO)cc4)CC3)c(CC#N)c2-c2ccc(C#N)c(F)c2)cc1O [Example 218, (E)-3-(4-(((1-(4-(4-Cyano-3-fluorophenyl)-3-(cyanomethyl)-5-(3-hydroxy-4-(2-hydroxy-2-methylpropoxy)phenyl)pyridin-2-yl)piperidin-4-yl)amino)methyl)phenyl)-N-hydroxyacrylamide formate]	1.01	10.2	35.6	1.77		13.4	15.3
N#Cc1ccc(-c2c(-c3ccc(Cl)c(O)c3)cnc(N3CCC(NCc4ccc(/C=C/C(=O)NO)cc4)CC3)c2C#N)cn1 [Example 237, (E)-3-(4-((1-(5′-(4-Chloro-3-hydroxyphenyl)-3′,6-dicyano-[3,4′-bipyridin]-2′-yl)piperidin-4-yl)amino)methyl) phenyl)-N-hydroxyacrylamide formate]	3.37	1.75	4.4	1.29		4.06	3.27
